Assay results reported in patent US20230172936A1, “VCP/p97 INHIBITOR FOR THE TREATMENT OF CANCER” (Cleave Therapeutics, Inc., priority 2020, published 2023).

Tests used:
MOML-13 cell line = assay: Combination treatments, Cell Titer-Glo viability after 72 hours; assay type: cell-based, human; details: MOML-13
Experimental: (§1) The additional therapeutic agents for this example were azacitidine (Cayman Chemical Cat No. 11164), decitabine (Sigma Cat No. A3656) and venetoclax (InvivoChem Cat. No. V0001).
(§2) Cell Culture: Three human acute myeloid leukemia tumor cell lines were used in this study: HL60, MV4;11 and MOLM-13. HL60 and MV4;11 were grown in IMDM base media with 20% and 10% FBS, respectively. MOLM-13 was grown in RPMI 1640 base media with 20% FBS. All culture media contained 2 mM glutamine, 100 units/mL sodium penicillin G, […] gentamicin, and 100 μg/mL streptomycin sulfate. The tumor cells were cultured in tissue culture flasks in a humidified incubator at 37° C., in an atmosphere of 5% C02 and 95% air. Assay: Tumor cells were seeded in duplicate in a volume of 100 μL/well of media into 96-well micro-culture plates at initial densities low enough to allow for several population doublings (typically three to five) during the indicated incubation period. After a 24 hour incubation, test agents were added to each well. After 72 hours of culture with test articles, cell viability was determined using the Cell Titer-Glo® (Promega G7571) assay. Briefly, Cell Titer-Glo® (Promega G7571) reagents were equilibrated at room temperature for 30 minutes; 100 μL per well was added at endpoint (72 hours). Plates were gently shaken for two minutes and then incubated at room temperature for ten minutes prior to reading luminescence on the BMG Clariostar Plus microplate reader.
(§3) An IC50 ratio for each combination was calculated from the ratio of the combination IC50 as compared to the applicable no fixed agent (vehicle) control.

HL-60 cell line = assay: as above; assay type: cell-based, human; details: HL-60
Experimental: as §1, §2, §3

MV4; 11 cell line = assay: as above; assay type: cell-based, human; details: MV4, 11
Experimental: as §1, §2, §3

CTG-2238 = assay: Ex-vivo cytotoxicity by Cell Titer Glo; assay type: cell-based; details: Homo sapiens, 144 h; CTG-2238, 6 days
Experimental: (§4) Acute myelogenous leukemia (AML) is the most common acute leukemia in adults. A hematologic cancer, the disease is highly heterogeneous, with multiple subtypes. About 30% of AML cases harbor a FLT3/ITD mutation making the disease highly proliferative and more aggressive with a high risk of relapse.
(§5) Triplicate wells with media only and duplicate wells of vehicle (0.2% DMSO) were used as negative controls. […] To measure proliferation, untreated cells at days 0 and 6 were evaluated via Cell Titer Glo.
(§6) Protocol: • 1. AML cells were thawed and resuspended in enriched media composed of StemSpan™ Serum-Free Expansion Media (SFEM), 2% heat-inactivated FBS, StemSpan™ CC110 and recombinant human IL-3. • 2. 20,000 cells/well in 100 μL volume were plated on study day 0. • 3. […] Cells were incubated in the presence of drug for 6 days. • 5. On day 6, plates were removed from the incubator and equilibrated to room temperature for 20 minutes. 100 μL/well Cell Titer Glo was added to each well and incubated for 10 minutes before plate reading. • 6. Luminescence was recorded using Tecan Infinite M Plex plate reader.

CTG-3438 = assay: Ex-vivo cytotoxicity by Cell Titer Glo; assay type: cell-based; details: Homo sapiens, 144 h; CTG-3438, 6 days
Experimental: as §4, §5, §6

CTG-2242 = assay: Ex-vivo cytotoxicity by Cell Titer Glo; assay type: cell-based; details: Homo sapiens, 144 h; CTG-2242, 6 days
Experimental: as §4, §5, §6

CTG-2235 = assay: Ex-vivo cytotoxicity by Cell Titer Glo; assay type: cell-based; details: Homo sapiens, 144 h; CTG-2235, 6 days
Experimental: as §4, §5, §6

CTG-2702 = assay: Ex-vivo cytotoxicity by Cell Titer Glo; assay type: cell-based; details: Homo sapiens, 144 h; CTG-2702, 6 days
Experimental: as §4, §5, §6

CTG-2240 = assay: Ex-vivo cytotoxicity by Cell Titer Glo; assay type: cell-based; details: Homo sapiens, 144 h; CTG-2240, 6 days
Experimental: as §4, §5, §6

CTG-2232 = assay: Ex-vivo cytotoxicity by Cell Titer Glo; assay type: cell-based; details: Homo sapiens, 144 h; CTG-2232, 6 days
Experimental: as §4, §5, §6

CTG-2452 = assay: Ex-vivo cytotoxicity by Cell Titer Glo; assay type: cell-based; details: Homo sapiens, 144 h; CTG-2452, 6 days
Experimental: as §4, §5, §6

CTG-2227 = assay: Ex-vivo cytotoxicity by Cell Titer Glo; assay type: cell-based; details: Homo sapiens, 144 h; CTG-2227, 6 days
Experimental: as §4, §5, §6

CTG-2455 = assay: Ex-vivo cytotoxicity by Cell Titer Glo; assay type: cell-based; details: Homo sapiens, 144 h; CTG-2455, 6 days
Experimental: as §4, §5, §6

CTG-2774 = assay: Ex-vivo cytotoxicity by Cell Titer Glo; assay type: cell-based; details: Homo sapiens, 144 h; CTG-2774, 6 days
Experimental: as §4, §5, §6

CTG-2502 = assay: Ex-vivo cytotoxicity by Cell Titer Glo; assay type: cell-based; details: Homo sapiens, 144 h; CTG-2502, 6 days
Experimental: as §4, §5, §6

CTG-2901 = assay: Ex-vivo cytotoxicity by Cell Titer Glo; assay type: cell-based; details: Homo sapiens, 144 h; CTG-2901, 6 days
Experimental: as §4, §5, §6

CTG-3440 = assay: Ex-vivo cytotoxicity by Cell Titer Glo; assay type: cell-based; details: Homo sapiens, 144 h; CTG-3440, 6 days
Experimental: as §4, §5, §6

CTG-3439 = assay: Ex-vivo cytotoxicity by Cell Titer Glo; assay type: cell-based; details: Homo sapiens, 144 h; CTG-3439, 6 days
Experimental: as §4, §5, §6

CTG-2234 = assay: Ex-vivo cytotoxicity by Cell Titer Glo; assay type: cell-based; details: Homo sapiens, 144 h; CTG-2234, 6 days
Experimental: as §4, §5, §6

CTG-2233 = assay: Ex-vivo cytotoxicity by Cell Titer Glo; assay type: cell-based; details: Homo sapiens, 144 h; CTG-2233, 6 days
Experimental: as §4, §5, §6

[1] = Homo sapiens, 72 h, no fixed agent (vehicle), read-out: IC50
[2] = fixed agent Venetoclax+ Azacitidine - 20 nM

Cc1cc2c(C(N)=O)cccc2n1-c1nc2c(c(NCc3ccccc3)n1)CCCN2 [Compound 1, 1-(4-(Benzylamino)-5,6,7,8-tetrahydropyrido[2,3-d]pyrimidin-2-yl)-2-methyl-1H-indole-4-carboxamide]
IC50 (MOML-13 cell line; [1]): 216 nM | Combination: Monotherapy IC50 Ratio (MOML-13 cell line; fixed agent Azacitidine - 105 nM): 0.39 | Combination: Monotherapy IC50 Ratio (MOML-13 cell line; fixed agent Azacitidine - 850 nM): 0.39 | Combination: Monotherapy IC50 Ratio (MOML-13 cell line; fixed agent Decitabine - 2.5 nM): 0.56 | Combination: Monotherapy IC50 Ratio (MOML-13 cell line; fixed agent Decitabine - 8.5 nM): 0.30 | Combination: Monotherapy IC50 Ratio (MOML-13 cell line; fixed agent Venetoclax+ Azacitidine - 6.5 nM): 0.71 | Combination: Monotherapy IC50 Ratio (MOML-13 cell line; [2]): 0.52 | Combination: Monotherapy IC50 Ratio (HL-60 cell line; fixed agent Azacitidine - 5750 nM): 1.02 | Combination: Monotherapy IC50 Ratio (HL-60 cell line; fixed agent Azacitidine - 9800 nM): 0.85 | Combination: Monotherapy IC50 Ratio (HL-60 cell line; fixed agent Decitabine - 175 nM): 0.96 | Combination: Monotherapy IC50 Ratio (HL-60 cell line; fixed agent Decitabine - 1700 nM): 1.06 | Combination: Monotherapy IC50 Ratio (HL-60 cell line; fixed agent Venetoclax+ Azacitidine - 85 nM): 0.84 | Combination: Monotherapy IC50 Ratio (HL-60 cell line; fixed agent Venetoclax+ Azacitidine - 475 nM): 0.84 | IC50 (HL-60 cell line; [1]): 305 nM | IC50 (MV4; 11 cell line; [1]): 251 nM | Combination: Monotherapy IC50 Ratio (MV4; 11 cell line; fixed agent Azacitidine - 500 nM): 0.46 | Combination: Monotherapy IC50 Ratio (MV4; 11 cell line; fixed agent Azacitidine - 3150 nM): 0.47 | Combination: Monotherapy IC50 Ratio (MV4; 11 cell line; fixed agent Decitabine - 30 nM): 0.47 | Combination: Monotherapy IC50 Ratio (MV4; 11 cell line; fixed agent Decitabine - 215 nM): 0.36 | Combination: Monotherapy IC50 Ratio (MV4; 11 cell line; [2]): 0.65 | Combination: Monotherapy IC50 Ratio (MV4; 11 cell line; fixed agent Venetoclax+ Azacitidine - 50 nM): 0.47 | IC50 (CTG-2238): 237 nM | IC50 (CTG-3438): 263 nM | IC50 (CTG-2242): 501 nM | IC50 (CTG-2235): 362 nM | IC50 (CTG-2702): 427 nM | IC50 (CTG-2240): 500 nM | IC50 (CTG-2232): 275 nM | IC50 (CTG-2452): 512 nM | IC50 (CTG-2227): 274 nM | IC50 (CTG-2455): 220 nM | IC50 (CTG-2774): 327 nM | IC50 (CTG-2502): 480 nM | IC50 (CTG-2901): 446 nM | IC50 (CTG-3440): 332 nM | IC50 (CTG-3439): 691 nM | IC50 (CTG-2234): 485 nM | IC50 (CTG-2233): 412 nM
